Source: patent publication US20240344059A1, “Gene Editing of Regulatory Elements” (Vertex Pharmaceuticals Incorporated, priority 2021, published 2024)

System: CUG foci in myonuclei of DM1 patient myotubes
Experiment: FISH staining of CUG RNA foci (SaCas9/SluCas9 sgRNA pairs)
Format: cell-based, human
Set-up: average Foci reduction: concentration or dose not given beside the values
Conditions: myonuclei of DM1 patient myotubes
Procedure: Primary myotubes were fixed for 15 min with 4% paraformaldehyde (PFA) and washed five times with 1×PBS for 5 min each at room temperature. Before staining, cells were permeabilized with 0.5% triton X-100 in 1×PBS for 5 min at room temperature, and then washed with 30% formamide and 2× saline-sodium citrate (SSC) mixture for 10 min at room temperature. Cells were then stained with 1 ng/μL of Cy3-PNA(CAG)5 probe (PNA Bio, F5001) diluted in 30% formamide, 2×SSC, 2 μg/mL BSA, 66 μg/mL yeast tRNA, and 2 mM vanadyl complex for 15 min at 80° C. Following probe staining, cells were then washed in 30% formamide and 2×SSC mixture for 30 min at 60° C., then washed in 30% formamide and 2×SSC mixture for 30 min at 55° C., and then washed in 1×SSC solution for 10 min at room temperature, and finally washed in 1×PBS for 10 min at room temperature. For staining of myotube nuclei, cells were stained with anti-Myogenin antibody diluted in 1% bovine serum albumin (BSA) for overnight at 4° C. and washed twice with 1×PBS for 5 min each at room temperature. Cells were then incubated with the secondary antibody goat anti-rabbit Alexa 488 (Thermo Fisher, A32731) diluted in 1% BSA for 1 hr at room temperature and washed twice with 1×PBS for 5 min each at room temperature. Next, cells were stained with Hoechst solution (Thermo Fisher, H3569) at 0.1 mg/ml for 5 min and washed once with 1×PBS for 5 min. PBS was aspirated and fresh 100 μl of fresh PBS was added to each well. High-throughput acquisition of images was completed with the ImageXpress Micro Confocal High-Content Imaging System (Molecular Devices). RNA foci quantifications were accomplished with a customized analysis module of the MetaXpress program (Molecular Devices).
Each sgRNA pair consisting of one upstream sgRNA and one downstream sgRNA were assembled with recombinant SaCas9 or SluCas9 protein, respectively, into a ribonucleoprotein (RNP) complex and delivered into primary DM1 patient myoblasts with Amaxa 4D-Nucleofector. Post nucleofection, myoblasts were divided into 6 groups and were treated with DMSO (Groups 1-3) or 3 μM of DNA-dependent Protein Kinase Inhibitor (DNA-PKi) Compound 6 (Group 4-6) for 48 hrs. DNA-PKi was used to boost the excision efficiency and to better understand the contribution of E-boxes to DMPK transcription. 72 hrs post nucleofection, myoblasts from Groups 1 and 4 were collected for genomic DNA isolation, whereas the rest of the groups were subjected to myogenic differentiation to form myotubes. The myotubes were collected on Day 15 post nucleofection (Day 12 post differentiation) for mRNA isolation (Group 2 and 5) and RNA foci staining (Groups 3 and 6) (FIG. 9).

Row | Substance | average Foci reduction
1 | SaU1DI: SaCas9 sgRNA pair SaU1 + SaD1, SEQ ID NOs 1300/1305, delivered as RNP (guide 1 ATGGCCTCTCTGCACCCCGCCT; guide 2 CTGGTTCTCCCACAGGGCCCGC; delivered as SaCas9 RNP, further chemistry not given here) | ~50%
2 | SaU3D1: SaCas9 sgRNA pair SaU3 + SaD1, SEQ ID NOs 1302/1305, delivered as RNP (guide 1 TCTCTGCACCCCGCCTCAGGGT; guide 2 CTGGTTCTCCCACAGGGCCCGC; delivered as SaCas9 RNP, further chemistry not given here) | ~50%
3 | SaU3D3: SaCas9 sgRNA pair SaU3 + SaD3, SEQ ID NOs 1302/1307, delivered as RNP (guide 1 TCTCTGCACCCCGCCTCAGGGT; guide 2 CTGCGATCCAGGAGGGACAACT; delivered as SaCas9 RNP, further chemistry not given here) | ~50%
4 | saU5D1: SaCas9 sgRNA pair SaU5 + SaD1, SEQ ID NOs 1304/1305, delivered as RNP (guide 1 CCATAGAGCCCACTTTTGGGGG; guide 2 CTGGTTCTCCCACAGGGCCCGC; delivered as SaCas9 RNP, further chemistry not given here) | ~50%
5 | sluU3D2: SluCas9 sgRNA pair SluU3 + SluD2, delivered as RNP (guide 1 TCTCTGCACCCCGCCTCAGGGT; guide 2 GAAGAACCCAAAGTTGTCCCTC; delivered as SaCas9 RNP, further chemistry not given here) | ~50%
6 | sluU3D3: SluCas9 sgRNA pair SluU3 + SluD3, delivered as RNP (guide 1 TCTCTGCACCCCGCCTCAGGGT; guide 2 CTGCGATCCAGGAGGGACAACT; delivered as SaCas9 RNP, further chemistry not given here) | ~50%
7 | sluU64D34: control CTG repeat excision SluCas9 sgRNA pair, SEQ ID NOs 1497 and 1498 (guide 1 GGGGCTCGAAGGGTCCTTGTAG; guide 2 CGCGCCAGACGCTCCCCAGAGC; listed as DNA, chemistry not given here) [reference compound] | ~50%
